These results are taken from PubChem BioAssay (NCI).

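The compound was tested at five concentrations on cells cultured in 96-well plates, with a 48-hour exposure period. TGI denotes the concentration required for complete inhibition of growth.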

Some test systems named below: ACHN renal; CCRF-CEM leukemia; COLO 205 colon; HCC-2998 colon; MALME-3M melanoma; NCI-H226 lung; PC-3 prostate; RXF 393 renal; SK-MEL-2 melanoma; SK-OV-3 ovarian; UACC-257 melanoma.
Common to all, as to assay: NCI-60 cell line screen, 48 h

For the compound `CCOC(CN(C)C(=O)Nc1ccc(Cl)c(Cl)c1)OCC`, the TGI in the assay with ACHN renal, in the assay with CCRF-CEM leukemia, in the assay with COLO 205 colon, in the assay with HCC-2998 colon, in the assay with MALME-3M melanoma and in the assay on NCI-H226 lung was above 10 µM each time. Moreover, the TGI in the assay with PC-3 prostate, in the assay on RXF 393 renal, in the assay on SK-MEL-2 melanoma, with SK-OV-3 ovarian and in the assay on UACC-257 melanoma was above 10 µM throughout.

On to `O=C1C(Cl)=C(N2CCN(CCOCCO)CC2)C(=O)c2ccccc21`, for which the TGI with ACHN renal was 19.5 µM; with CCRF-CEM leukemia, 7.27 µM; in the assay on COLO 205 colon, 28.7 µM; in the assay with HCC-2998 colon, 32.1 µM; in the assay with MALME-3M melanoma it was 15.2 µM; in the assay on NCI-H226 lung it was 31 µM. In addition, the TGI with PC-3 prostate came out at 31.9 µM; in the assay with RXF 393 renal, 8.91 µM; with SK-MEL-2 melanoma, 23 µM; with SK-OV-3 ovarian, 28.9 µM; with UACC-257 melanoma, 15.7 µM.

On to `CCCCCCCCCC(=O)NCCc1c[nH]c2ccc(OC)cc12`, for which the TGI with ACHN renal was 30.6 µM; in the assay on CCRF-CEM leukemia it was 37.5 µM; in the assay on COLO 205 colon it was 55.7 µM; in the assay with HCC-2998 colon, 36.1 µM; in the assay with MALME-3M melanoma it was 34.3 µM; in the assay on NCI-H226 lung, 42.1 µM. The TGI in the assay with PC-3 prostate stood at 28.9 µM; in the assay with RXF 393 renal, 38 µM; in the assay on SK-MEL-2 melanoma, 30.5 µM; in the assay on SK-OV-3 ovarian it was 31.7 µM; with UACC-257 melanoma, 41.8 µM.

Turning to `OCC(O)C(O)C(O)C(O)CNCCO/N=C1/C(c2c(O)[nH]c3ccccc23)=Nc2ccccc21` (centres undefined), the TGI with ACHN renal was above 50 µM; in the assay with CCRF-CEM leukemia, 30.2 µM; in the assay on COLO 205 colon, 40.6 µM; in the assay with HCC-2998 colon, 28.7 µM; with MALME-3M melanoma, 27.7 µM; in the assay on NCI-H226 lung it was above 50 µM. Also, the TGI was 30.8 µM with PC-3 prostate; 39.2 µM in the assay with RXF 393 renal; 15.7 µM in the assay with SK-MEL-2 melanoma; 29.8 µM in the assay on SK-OV-3 ovarian; 37.9 µM with UACC-257 melanoma.

Take `COc1ccc(N=C(CS(=O)c2ccc(C)cc2)C(F)(F)F)cc1` (centres undefined): the TGI with ACHN renal, in the assay on CCRF-CEM leukemia, with COLO 205 colon, with HCC-2998 colon, with MALME-3M melanoma and in the assay on NCI-H226 lung was above 100 µM throughout. For the same compound, the TGI with PC-3 prostate, in the assay on RXF 393 renal, in the assay on SK-MEL-2 melanoma, with SK-OV-3 ovarian and in the assay with UACC-257 melanoma was above 100 µM each time.

For `Cc1ccc(N=NN(C)C(C)C(O)Cc2ccccc2)cc1` (centres undefined), the TGI in the assay on ACHN renal, with CCRF-CEM leukemia, in the assay with COLO 205 colon, in the assay with HCC-2998 colon, in the assay with MALME-3M melanoma and in the assay with NCI-H226 lung was above 100 µM in each case. In addition, the TGI in the assay on PC-3 prostate, in the assay on RXF 393 renal, in the assay on SK-MEL-2 melanoma, in the assay with SK-OV-3 ovarian and in the assay on UACC-257 melanoma was above 100 µM each time.

Take `CC(C)C1CC(CO)(CNc2nc(N)nc(Cl)c2/C=N\O)C1` (centres undefined): the TGI is 35 µM in the assay with ACHN renal; above 79.2 µM in the assay with CCRF-CEM leukemia; 11.8 µM with COLO 205 colon; 17.8 µM in the assay on HCC-2998 colon; 16 µM in the assay on MALME-3M melanoma; 51.2 µM in the assay on NCI-H226 lung. For the same compound, the TGI in the assay on PC-3 prostate was 26.5 µM; with RXF 393 renal, 55.1 µM; in the assay with SK-MEL-2 melanoma it was 26.5 µM; in the assay on SK-OV-3 ovarian, 30.2 µM; in the assay with UACC-257 melanoma, 11.8 µM.

Turning to `CC1(c2nc3ccccc3[nH]2)CCC(C#N)C(C)(C)O1` (centres undefined), the TGI in the assay on ACHN renal, in the assay on CCRF-CEM leukemia, in the assay with COLO 205 colon, in the assay with HCC-2998 colon, with MALME-3M melanoma and with NCI-H226 lung was above 100 µM in each case. Moreover, the TGI with PC-3 prostate, in the assay on RXF 393 renal, with SK-MEL-2 melanoma, in the assay with SK-OV-3 ovarian and in the assay with UACC-257 melanoma was above 100 µM each time.

`COC(=O)CN=C1NC(=S)N(Cc2ccc(OC)cc2)C12CCCC2`: the TGI in the assay with ACHN renal, with CCRF-CEM leukemia, with COLO 205 colon, in the assay on HCC-2998 colon, in the assay with MALME-3M melanoma and with NCI-H226 lung was above 100 µM in each case. Moreover, the TGI in the assay with PC-3 prostate, in the assay with RXF 393 renal, in the assay on SK-MEL-2 melanoma, in the assay with SK-OV-3 ovarian and with UACC-257 melanoma was above 100 µM in each case.

For the compound `COc1ccc(Cc2cc(OC)c(OC)c(OC)c2)cc1`, the TGI was above 93.3 µM with ACHN renal; 16.9 µM in the assay with CCRF-CEM leukemia; 1.51 µM in the assay on COLO 205 colon; 1.4 µM in the assay with HCC-2998 colon; above 100 µM with MALME-3M melanoma; 12 µM with NCI-H226 lung. The TGI in the assay with PC-3 prostate is above 100 µM; with RXF 393 renal, 3.38 µM; in the assay with SK-MEL-2 melanoma, 41.4 µM; with SK-OV-3 ovarian, 23.2 µM; with UACC-257 melanoma it was above 71.8 µM.

As to `Cc1ccc(S(=O)(=O)NN=C2C(C)(C)CC2(C)C)cc1`, the TGI with ACHN renal, in the assay with CCRF-CEM leukemia, with COLO 205 colon, in the assay on HCC-2998 colon, in the assay on MALME-3M melanoma and in the assay on NCI-H226 lung was above 100 µM each time. Moreover, the TGI in the assay with PC-3 prostate, with RXF 393 renal, in the assay with SK-MEL-2 melanoma, with SK-OV-3 ovarian and in the assay on UACC-257 melanoma was above 100 µM each time.

Consider `CSCCC(NC(=O)Cc1ccc(C(=O)c2ccccc2)cc1)C(=O)N1CCN(CCCCN2c3ccccc3Sc3cc(N=[N+]=[N-])ccc32)CC1` (centres undefined), for which the TGI in the assay with ACHN renal, in the assay on CCRF-CEM leukemia, in the assay on COLO 205 colon, in the assay with HCC-2998 colon, in the assay on MALME-3M melanoma and in the assay on NCI-H226 lung was above 100 µM throughout. Further, the TGI with PC-3 prostate, in the assay on RXF 393 renal, in the assay on SK-MEL-2 melanoma, in the assay with SK-OV-3 ovarian and in the assay with UACC-257 melanoma was above 100 µM each time.

Consider `COc1ccc(OC)c(N=Cc2cc(OC)c(OC)c(OC)c2)c1`, for which the TGI in the assay with ACHN renal was above 100 µM; in the assay on CCRF-CEM leukemia, 66.4 µM; with COLO 205 colon it was above 100 µM; in the assay on HCC-2998 colon, above 100 µM; in the assay on MALME-3M melanoma it was above 100 µM; with NCI-H226 lung it was above 100 µM. Besides, the TGI in the assay with PC-3 prostate, with RXF 393 renal, in the assay with SK-MEL-2 melanoma, in the assay with SK-OV-3 ovarian and in the assay with UACC-257 melanoma was above 100 µM each time.

Consider `Fc1ccc(Oc2nc3ccccc3nc2-c2ccccc2)cc1`, for which the TGI with ACHN renal, in the assay with CCRF-CEM leukemia, with COLO 205 colon, with HCC-2998 colon, with MALME-3M melanoma and in the assay on NCI-H226 lung was above 100 µM throughout. Also, the TGI in the assay on PC-3 prostate, in the assay with RXF 393 renal, with SK-MEL-2 melanoma, with SK-OV-3 ovarian and in the assay on UACC-257 melanoma was above 100 µM in each case.
